The source of these data is patent US20040086904A1, “Screening assay for cotranslational translocation interfering compounds” (priority 2001, published 2004).

This assay addresses T1, E-Selectin (Homo sapiens, UniProt P16581).
T1 construct: Full length cDNAs of the adhesion molecules VCAM-1, ICAM-1 and E-Selectin are transcribed and translated; host or cells: cell-free: coupled TNT reticulocyte lysate (Promega) with dog pancreatic microsomes
T1 sequence (P16581 22-610): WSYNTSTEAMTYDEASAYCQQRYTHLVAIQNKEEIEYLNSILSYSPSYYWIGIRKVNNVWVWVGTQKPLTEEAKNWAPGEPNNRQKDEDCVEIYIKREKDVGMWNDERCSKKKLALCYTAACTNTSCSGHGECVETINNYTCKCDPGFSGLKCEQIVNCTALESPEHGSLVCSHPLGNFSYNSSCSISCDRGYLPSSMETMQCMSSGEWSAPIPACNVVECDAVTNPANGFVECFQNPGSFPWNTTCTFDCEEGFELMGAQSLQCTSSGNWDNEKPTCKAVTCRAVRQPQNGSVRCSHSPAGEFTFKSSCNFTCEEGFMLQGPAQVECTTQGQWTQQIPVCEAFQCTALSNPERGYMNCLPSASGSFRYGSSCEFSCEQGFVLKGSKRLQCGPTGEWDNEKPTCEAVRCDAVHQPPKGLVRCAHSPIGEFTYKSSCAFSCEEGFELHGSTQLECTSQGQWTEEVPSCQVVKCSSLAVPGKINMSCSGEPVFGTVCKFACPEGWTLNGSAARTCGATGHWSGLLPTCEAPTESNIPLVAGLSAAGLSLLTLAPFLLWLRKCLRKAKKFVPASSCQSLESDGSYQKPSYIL
Description: Transient expression of E-Selectin in HEK293 cells, Western blot / immunoblot. Type of assay: cell-based. The settings on record: transiently transfected HEK293 cells, 48 hours post-transfection, increasing concentrations. On the procedure:
The E-Selectin and ICAM-1 expression vectors pCDM8-E-selectin and pCDM8-ICAM-1 allowing transient expression in mammalian cells and cell-free translation are obtained from R&D Systems. VCAM-1 cDNA is obtained by reverse transcription of total RNA from TNF-α stimulated primary human umbilical vein endothelial cells (HUVEC) as follows. After extraction of total RNA with Trizol (GibcoBRL) according to the suppliers recommendations, reverse transcription (RT) PCR on approximately 3 μg total HUVEC RNA is performed using the Advantage High Fidelity PCR kit (CLONTECH) under standard conditions with N- and C-terminal VCAM-1-specific sense and antisense oligonucleotide primers, respectively. Primers are tailed, introducing a Kpnl restriction site 5′ of the Kozak sequence and a Xhol site 3′ of the stop codon. Placental SEAP is amplified accordingly by PCR using plasmid pBC 12/PLAP489 (Berger et al., 1988) as a template and similar tailed SEAP-specific sense and antisense oligonuclotide primers. The SEAP and VCAM-1 cDNAs are isolated and cloned into the pCR2.1 vector (TA cloning kit, Invitrogen). […] Approximately equal molar quantities of each PCR product A and B are phosphorylated and ligated. […]
Protein expression in cells is analyzed by Western blot and subsequent immunoblot analysis. […]

Regarding `CCCCC(C)CC1NC(=O)C(Cc2cn(OC)c3ccccc23)N(C)C(=O)C(CC(C)C)NC(=O)C(CC(C)C)N(C)C(=O)C(CC(C)CCCC)NC(=O)C(CCC(=O)OCCC)OC(=O)C(C)N(C)C1=O` (stereo not shown) [CP], the “synthesis of E-Selectin” value is listed as “not-affected”.
